In patent publication US9701651B2, “Methods of treating an overweight or obese subject” (Zafgen, Inc., priority 2008, dated 2017):
“Also recorded” adds a separate entry of the source.

What follows are compounds tested on DIO mice (assay: Weight loss study in diet-induced obese mice (oral administration)). Settings: 1.0 mg/kg orally in 10% gelucire in deionised water, once a day for 7 days; mice on 60% fat diet; over the course of the 8 days; compared with vehicle group.
Format: in vivo, C57BL/6NTac mice
Method: A weight loss study was conducted in obese mice. The mice in this study were not genetically obese, but prior to and during the study, obesity was induced by a high-fat diet. Twelve week-old C57BL/6NTac mice, maintained on a 60% fat diet prior to and during the study, were separated into seven groups, eight animals per group. Average body weight of the mice was approximately 47 g at the start of the study.
Each of […] groups was orally administered 1.0 mg/kg of a compound (fumagillin and compounds B. C, D, E, F and G), in 10% gelucire in deionised water. Compounds B-G are as follows:
Each of these six groups was administered a different compound. One group was orally administered fumagillin at 1.0 mg/kg (ZGN-201) in 10% gelucire in deionised water, and one group was administered ([…] in deionised water(vehicle). Mice received administrations once a day for 7 days.
(Data analyzed by ANCOVA with body weight on Day 1 as covariate followed by multiple tests against vehicle group: *p<0.05; **p<0.01, ***p<0.001.)

| SMILES | effect on body weight (weight loss) |
| --- | --- |
| CO[C@@H]1[C@H](OC(=O)N[C@@H](C(N)=O)C(C)C)CC[C@]2(CO2)[C@H]1[C@@]1(C)O[C@@H]1CC=C(C)C [B] | lost weight |
| CO[C@@H]1[C@H](OC(=O)/C=C/C=C/C=C/C=C/C(=O)O)CC[C@]2(CO2)[C@H]1[C@@]1(C)O[C@@H]1CC=C(C)C [fumagillin, reference compound] | lost the most weight |
| CO[C@@H]1[C@H](OC(=O)N[C@@H](C(=O)NCCC2CCCN2C)C(C)C)CC[C@]2(CO2)[C@H]1[C@@]1(C)O[C@@H]1CC=C(C)C (some centres unmarked) [D] | lost weight |
| CO[C@@H]1[C@H](OC(=O)N[C@@H](C(=O)NCCN2CCCC2)C(C)C)CC[C@]2(CO2)[C@H]1[C@@]1(C)O[C@@H]1CC=C(C)C [E] | lost weight |
| CO[C@@H]1[C@H](OC(=O)NCCC2CCCN2C)CC[C@]2(CO2)[C@H]1[C@@]1(C)O[C@@H]1CC=C(C)C (some centres unmarked) [C] | lost weight; also recorded: losing the most weight of these four groups |
